Data on 3 compounds can be found in patent US7687536B2, “Aminocycloalkyl cinnamide compounds for arrhythmia and as analgesics and anesthetics” (Cardiome Pharma Corp., priority 1999, dated 2010).

Data set [1] concerns ECG parameters (P-R, QRS, Q-T interval). Nature of the data set: Measurement of ECG parameters in pentobarbital anesthetized rats, bolus injections. The data set is classed as in vivo, rat. Conditions: bolus injection. On the procedure:
Rats weighing 200-250 gms were used in this example. Animals were anesthetized with 60 mg/kg pentobarbital i.p. The carotid artery and jugular vein were cannulated for measurement of blood pressure and drug injection, respectively. ECG was recorded by insertion of electrodes placed along the anatomical axis of the heart. All compounds were given as bolus injections.
Various ECG parameters were measured. Table 3 describes the results of the tests as ED25 (micromol/kg) which are the doses required to produce a 25% increase in the parameter measured (ne=not estimated). The increases in P-R interval and QRS interval indicate cardiac sodium channel blockage while the increase in Q-T interval indicates ancillary cardiac potassium channel blockage which is the property of a type 1a antiarrhythmic.

The test system of data set [2] is cardiac arrhythmias in conscious rats subjected to coronary artery occlusion. Description: Antiarrhythmic efficacy: coronary artery occlusion in conscious rats. The data set is classed as in vivo, rat. Conditions: infusion rate which reduces the arrhythmia score to 50% of that of vehicle-treated animals. On the procedure: Antiarrhythmic efficacy was assessed by investigating the effect of a compound on the incidence of cardiac arrhythmias in conscious rats subjected to coronary artery occlusion. Rats weighing 200-300 gms were subjected to preparative surgery and assigned to groups in a random block design. In each case, the animal was anesthetized with halothane during surgical preparation. The left femoral artery was cannulated for measurement of mean arterial blood pressure and withdrawal of blood sample. The left femoral vein was also cannulated for injection of drugs. The thoracic cavity was opened and a polyethylene occluder loosely placed around the left anterior descending coronary artery. The thoracic cavity was then closed. ECG was recorded by insertion of electrodes placed along the anatomical axis of the heart. All cannulae and electrode leads were exteriorized in the mid scapular region. […] ECG, arrhythmias, blood pressure, heart rate and mortality were monitored for 30 minutes after occlusion. Arrhythmias were recorded as ventricular tachycardia (VT) and ventricular fibrillation (VF) and scored according to Curtis, M. J. and Walker, M. J. A., Cardiovasc. […]
Occlusion is associated with increases in R-wave height and “S-T” segment elevation; and an occluded zone (measured after death by cardiogreen dye perfusion) in the range of 25%-50% of total left-ventricular weight. […]

In the next data set the target is T1, cardiac sodium channel (Rattus norvegicus, UniProt P15389).
T1 construct: from tissue; host or cells: heart (left ventricle) of the living rat, in vivo
T1 sequence (P15389 whole entry): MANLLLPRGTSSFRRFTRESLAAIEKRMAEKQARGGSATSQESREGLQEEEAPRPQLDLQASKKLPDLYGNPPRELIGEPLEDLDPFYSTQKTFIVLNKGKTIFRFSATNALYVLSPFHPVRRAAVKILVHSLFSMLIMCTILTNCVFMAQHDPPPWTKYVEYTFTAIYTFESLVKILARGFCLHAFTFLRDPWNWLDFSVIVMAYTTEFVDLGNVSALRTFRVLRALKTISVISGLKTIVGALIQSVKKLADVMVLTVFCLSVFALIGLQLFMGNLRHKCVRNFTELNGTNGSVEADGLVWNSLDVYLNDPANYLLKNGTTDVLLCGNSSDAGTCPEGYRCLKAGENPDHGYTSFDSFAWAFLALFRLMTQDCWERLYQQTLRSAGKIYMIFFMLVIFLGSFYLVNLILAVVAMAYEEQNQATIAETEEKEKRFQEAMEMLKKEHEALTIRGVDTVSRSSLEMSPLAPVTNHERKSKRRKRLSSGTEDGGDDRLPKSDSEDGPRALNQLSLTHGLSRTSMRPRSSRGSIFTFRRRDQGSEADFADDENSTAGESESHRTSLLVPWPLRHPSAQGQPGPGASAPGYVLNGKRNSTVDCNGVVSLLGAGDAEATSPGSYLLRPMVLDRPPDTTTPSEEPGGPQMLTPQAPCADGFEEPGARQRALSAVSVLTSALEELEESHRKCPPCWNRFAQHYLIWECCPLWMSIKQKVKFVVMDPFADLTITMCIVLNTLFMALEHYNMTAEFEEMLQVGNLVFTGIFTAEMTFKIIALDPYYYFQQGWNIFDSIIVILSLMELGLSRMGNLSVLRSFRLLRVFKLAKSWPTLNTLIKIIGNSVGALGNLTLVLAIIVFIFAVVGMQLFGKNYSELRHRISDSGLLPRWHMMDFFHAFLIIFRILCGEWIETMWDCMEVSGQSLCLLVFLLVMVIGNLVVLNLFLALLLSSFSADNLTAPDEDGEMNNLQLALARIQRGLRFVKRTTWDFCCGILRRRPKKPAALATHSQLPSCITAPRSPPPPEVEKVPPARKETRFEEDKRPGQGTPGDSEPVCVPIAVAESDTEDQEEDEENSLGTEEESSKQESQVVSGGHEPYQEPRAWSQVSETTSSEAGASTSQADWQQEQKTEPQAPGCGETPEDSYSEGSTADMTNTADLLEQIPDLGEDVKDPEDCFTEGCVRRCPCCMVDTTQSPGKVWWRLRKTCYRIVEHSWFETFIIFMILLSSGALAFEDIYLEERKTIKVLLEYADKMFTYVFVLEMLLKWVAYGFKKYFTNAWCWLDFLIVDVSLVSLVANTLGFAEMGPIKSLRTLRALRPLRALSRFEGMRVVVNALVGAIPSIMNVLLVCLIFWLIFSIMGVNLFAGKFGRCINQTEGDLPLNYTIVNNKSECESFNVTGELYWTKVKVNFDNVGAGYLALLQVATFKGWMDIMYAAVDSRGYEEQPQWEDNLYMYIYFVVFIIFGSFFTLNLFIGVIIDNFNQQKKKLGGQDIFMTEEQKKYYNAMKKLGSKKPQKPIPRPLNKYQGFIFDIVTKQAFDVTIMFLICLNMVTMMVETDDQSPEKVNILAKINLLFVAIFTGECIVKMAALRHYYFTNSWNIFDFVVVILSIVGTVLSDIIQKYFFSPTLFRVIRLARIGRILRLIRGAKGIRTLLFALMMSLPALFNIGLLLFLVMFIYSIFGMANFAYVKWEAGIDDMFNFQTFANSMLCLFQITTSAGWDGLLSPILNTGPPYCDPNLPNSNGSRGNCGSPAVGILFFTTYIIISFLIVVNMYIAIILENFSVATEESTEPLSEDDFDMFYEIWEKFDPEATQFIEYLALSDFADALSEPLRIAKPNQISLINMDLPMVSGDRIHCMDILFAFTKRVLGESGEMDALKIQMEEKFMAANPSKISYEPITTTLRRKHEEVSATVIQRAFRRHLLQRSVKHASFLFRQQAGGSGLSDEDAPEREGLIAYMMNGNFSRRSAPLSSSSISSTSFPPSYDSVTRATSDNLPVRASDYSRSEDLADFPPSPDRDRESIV
Nature of the data set: Assessment of sodium channel blockage: electrical stimulation of left ventricle in rats. The data set is classed as in vivo. Conditions: infusion rate required to elicit a 25% increase from control. On the procedure: Rats were prepared according to the preceding procedure. Two silver stimulating electrodes were inserted through the chest wall and implanted in the left ventricle. Square wave stimulation was used to determine threshold current for capture, ventricular fibrillation threshold current, and effective refractory period (Howard, P. G. and Walker, M. J. A., Proc. West. Pharmacol. Soc. 33:123-127 (1990)). Table 4 contains ED25 values for these indices of cardiac sodium channel blockage, where the ED25 is the infusion rate in micromol/kg/minute of compound required to elicit a 25% increase from control. The increases in refractoriness indicate ancillary blockage of potassium channels. The threshold current for capture is represented by “It”. The fibrillation threshold current is represented by “VFT”. The effective refracting period is represented by “ERP”.

For data set [3], the system named is sustained AF maintained during continuous vagal nerve stimulation. Description: Canine vagal-AF model. The data set is classed as in vivo, dog. As for the experimental part:
Mongrel dogs of either sex weighing 15-49 kg were anesthetized with morphine (2 mg/kg im initially, followed by 0.5 mg/kg IV every 2 h) and α-chloralose (120 mg/kg IV followed by an infusion of 29.25 mg/kg/h; St.-Georges et al., 1997). Dogs were ventilated mechanically with room air supplemented with oxygen via an endotracheal tube at 20 to 25 breaths/minute with a tidal volume obtained from a nomogram. Arterial blood gases were measured and kept in the physiological range (SAO2>90%, pH 7.30-7.45). Catheters were inserted into the femoral artery for blood pressure recording and blood gas measurement, and into both femoral veins for drug administration and venous sampling. Catheters were kept patent with heparinized 0.9% saline solution. Body temperature was maintained at 37-40° C. with a heating blanket.
The heart was exposed via a medial thoracotomy and a pericardial cradle was created. Three bipolar stainless steel, Teflon™-coated electrodes were inserted into the right atria for recording and stimulation, and one was inserted into the left atrial appendage for recording. A programmable stimulator (Digital Cardiovascular Instruments, Berkeley, Calif.) was used to stimulate the right atrium with 2 ms, twice diastolic threshold pulses. Two stainless steel, Teflon™-coated electrodes were inserted into the left ventricle, one for recording and the other for stimulation. A ventricular demand pacemaker (GBM 5880, Medtronics, Minneapolis, Minn.) was used to stimulate the ventricles at 90 beats/minute when (particular during vagal-AF) the ventricular rate became excessively slow. A P23 ID transducer, electrophysiological amplifier (Bloom Associates, Flying Hills, Pa.) and paper recorder (Astromed MT-95000, Toronto, ON, Canada) were used to record ECG leads II and III, atrial and ventricular electrograms, blood pressure and stimulation artefacts. The vagi were isolated in the neck, doubly-ligated and divided, and electrodes inserted in each nerve (see below). To block changes in β-adrenergic effects on the heart, nadolol was administered as an initial dose of 0.5 mg/kg iv, followed by 0.25 mg/kg IV every two hours.
Drug effects to terminate sustained AF maintained during continuous vagal nerve stimulation were assessed. Unipolar hook electrodes (stainless steel insulated with Teflon™, coated except for the distal 1-2 cm) were inserted via a 21 gauge needle within and parallel to the shaft of each nerve. In most experiments, unipolar stimuli were applied with a stimulator (model DS-9F, Grass Instruments, Quincy, Mass.) set to deliver 0.1 ms square-wave pulses at 10 Hz and a voltage 60% of that required to produce asystole. In some experiments, bipolar stimulation was used. The voltage required to produce asystole ranged between 3-20 volts. Under control conditions, a short burst of rapid atrial pacing (10 Hz, four times diastolic threshold) was delivered to induce AF which was ordinarily sustained for more than 20 minutes. The vagal stimulation voltage was adjusted under control conditions, and then readjusted after each treatment to maintain the same bradycardic effect. AF was defined as rapid (>500 minute under control conditions), irregular atrial rhythm with varying electrogram morphology.
Diastolic threshold current was determined at a basic cycle length of 300 ms by increasing the current 0.1 mA incrementally until stable capture was obtained. For subsequent protocols current was set to twice diastolic threshold. Atrial and ventricular ERP was measured with the extrastimulus method, over a range of S1S2 intervals at a basic cycle length of 300 ms. A premature extrastimulus S2 was introduced every 15 basic stimuli. The S1S2 interval was increased in 5 ms increments until capture occurred, with the longest S1S2 interval consistently failing to produce a propagated response defining ERP. Diastolic threshold and ERP were determined in duplicate and averaged to give a single value. These values were generally within 5 ms. […]

For another data set, the system named is AF. Conditions: cited from earlier work.

As for `CN(C(=O)C=Cc1ccc(Cl)c(Cl)c1)C1CCCC1N1CCCC1.Cl` [Compound 3, (1R,2R)/(1S,2S)≠N-METHYL-N-[2-(1-PYRROLIDINYL)CYCLOPENTYL]3,4-DICHLOROCINNAMIDE MONOHYDROCHLORIDE], in data set [1] (dose required to produce a 25% increase in P-R interval), the “ED25 PR” value stood at 8 µmol/kg. In addition, the “ED25 QT” value in data set [1] (dose required to produce a 25% increase in Q-T interval) turned out to be 5 µmol/kg. In data set [1] (dose required to produce a 25% increase in QRS interval), the “ED25 QRS” value was found to be 12 µmol/kg. The ED50AA in data set [2] stood at 2 µmol/kg/min. For the same compound, on cardiac sodium channel, the “ED25 ERP (effective refractory period)” value was found to be 2 µmol/kg/min, the “ED25 It (threshold current for capture)” value was 4 µmol/kg/min and the “ED25 VFT (fibrillation threshold current)” value came out at 12 µmol/kg/min.
With `O=C(NCC1CCCCN1)c1cc(OCC(F)(F)F)ccc1OCC(F)(F)F` (stereo not shown) [Flecainide], the “Median dose required for termination of AF” value in data set [3] (IV) worked out at 2.5 µmol/kg. For the same compound, the “effect on blood pressure or heart rate” value in data set [3] (at the median dose for termination of vagal-AF) was “did not reduce blood pressure or heart rate”. Further, the “prevented induction of AF” value in data set [3] (dogs in which AF was induced under control conditions during ERP determination with vagal nerve stimulation) was 2/4. Besides, the “AF cycle length (AFCL)” value in data set [3] (during vagal nerve stimulation, prior to termination of AF) was “prolonged AFCL”. In data set [3] (mean±SEM, IV), the “Mean dose required for termination of AF” value is 4 ± 2 µmol/kg. In data set [3] (vagal-AF), the “efficacy for terminating AF (dogs terminated/dogs tested)” value is given as 5/6 and the “efficacy for terminating AF (percent of dogs)” value was determined as 80%.
Regarding `CCCCCCCN(CC)CCCC(O)c1ccc(NS(C)(=O)=O)cc1` (stereo not shown) [ibutilide], the “patients requiring cardioversion for refractory ventricular arrhythmias” value in the data set with AF is recorded as approximately 1.7%. Besides, the “risk of ventricular proarrhythmia” value with AF (patients) is on record as approximately 4.4%.
